Source: the supplement of paper PMC8882468

How the values were obtained:
Assay in all cases: CTG-3D luminescence at 96 h relative to day-0 seeding control (ratio to day 0); higher = more growth / less cytotoxicity; PDxO 3D drug screen, 96 h, CTG-3D normalised to day-0 seeding control.
HCI-023 = test system: HCI-023 (organoid from a triple-negative breast cancer xenograft)
HCI-011.E2 = test system: HCI-011.E2 (organoid from an ER-positive breast cancer xenograft)
HCI-002 = test system: HCI-002 (organoid from a triple-negative breast cancer xenograft)
HCI-010 = test system: HCI-010 (organoid from a breast cancer xenograft)
HCI-015 = test system: HCI-015 (organoid from a triple-negative breast cancer xenograft)

C[C@H](NC(=O)CCC(F)(F)F)C(=O)N[C@@H]1C(=O)N(CCO)c2ncccc2-c2ccccc21 [crenigacestat]
CTG-3D luminescence at 96 h
Conditions	12.5 pM	0.00025 µM	0.005 µM	0.1 µM	1 µM	10 µM	100 µM	625 fM
HCI-002, days in culture: 62	2.87	2.47	2.56	2.68	2.3	2.72	2.8	2.91
HCI-002, days in culture: 82	3.27	3.18	2.46	2.78	2.76	2.69	2.21	2.76
HCI-002, days in culture: 91	3.89	3.6	2.93	3.44	3.36	3.56	2.88	3.82
HCI-002, days in culture: 191	2.59	2.32	2.2	2.19	2.46	2.35	2.4	2.36
HCI-002, days in culture: 209	2.47	2.47	2.22	1.91	2.27	1.93	2.41	2.29
HCI-002, days in culture: 227	5.37	5.77	5.03	5.6	4.74	4.97	3.7	4.95
HCI-010, days in culture: 52	2.36	2.09	2.19	2.54	2.37	2.23	2.04	2
HCI-010, days in culture: 65	1.61	1.63	1.79	1.64	1.79	1.6	1.45	1.67
HCI-010, days in culture: 103	3.59	3.73	3.34	3.15	3.09	2.87	2.58	2.85
HCI-011.E2, days in culture: 74	2.42	2.44	1.96	2.06	2.51	2.95	2.45	2.02
HCI-015, days in culture: 172	2.18	1.26	1.37	0.655	0.872	1.02	1.03	2.13
HCI-015, days in culture: 191	1.82	1.27	0.914	0.48	0.414	0.657	0.695	1.32
HCI-015, days in culture: 218	1.66	1.29	0.952	0.72	0.7	0.533	0.827	1.61
HCI-023, days in culture: 111	1.05	1.15	1.17	0.954	0.7	1.28	0.926	1.3
HCI-023, days in culture: 128	1.4	1.35	1.31	1.51	1.05	1.52	1.13	1.53

HCI-011.E2
Conditions	CTG-3D luminescence at 96 h
12.5 pM	1.52
0.00025 µM	2.05
0.005 µM	1.54
0.1 µM	1.98
1 µM	1.59
10 µM	1.95
100 µM	1.98
625 fM	1.91

CCN1CCN(Cc2ccc(Nc3ncc(F)c(-c4cc(F)c5nc(C)n(C(C)C)c5c4)n3)nc2)CC1 [abemaciclib]
CTG-3D luminescence at 96 h
Conditions	12.5 pM	0.00025 µM	0.005 µM	0.1 µM	1 µM	10 µM	100 µM	625 fM
HCI-002, days in culture: 62	2.66	2.58	3.14	1.73	1.79	0.212	0.0177	2.98
HCI-002, days in culture: 82	3.15	2.81	2.24	1.98	1.8	0.0326	0.0147	2.83
HCI-002, days in culture: 91	3.78	3.22	2.89	1.68	2.17	1.95	0.0268	3.9
HCI-002, days in culture: 191	2.72	2.89	3.01	1.89	2.34	0.748	0.018	2.57
HCI-002, days in culture: 209	2.24	2.35	2.4	1.36	1.49	0.0253	0.014	2.36
HCI-002, days in culture: 227	5.48	5.17	4.76	2.91	3.24	0.0659	0.0285	5.64
HCI-010, days in culture: 52	1.92	2.34	2.3	2.47	1.99	0.77	0.0133	2.09
HCI-010, days in culture: 65	1.68	1.83	2.02	1.78	1.2	0.0257	0.00729	1.65
HCI-010, days in culture: 103	3.48	3.18	3.28	3.44	3.5	2.6	0.0301	2.98
HCI-011.E2, days in culture: 74	1.84	2.83	2.59	2.7	2.61	1.72	0.00196	2.79
HCI-015, days in culture: 172	2.01	1.6	1.87	1.21	1.52	1.06	0.0103	1.19
HCI-015, days in culture: 191	1.17	1.4	1.23	1.15	1.45	1.09	0.0126	1.07
HCI-015, days in culture: 218	2.17	1.65	1.7	1.63	1.48	1.23	0.0151	1.79
HCI-023, days in culture: 111	1.62	1.22	1.3	1.11	0.658	0.377	0.00981	1.51
HCI-023, days in culture: 128	1.77	1.494	1.47	1.52	0.984	1.15	0.0139	1.84

HCI-011.E2
Conditions	CTG-3D luminescence at 96 h
12.5 pM	1.49
0.00025 µM	1.5
0.005 µM	1.57
0.1 µM	1.9
1 µM	1.52
10 µM	1.04
100 µM	0.00535
625 fM	1.6

Cc1cc(Nc2ncnc3ccc(NC4=NC(C)(C)CO4)cc23)ccc1Oc1ccn2ncnc2c1 [tucatinib]
CTG-3D luminescence at 96 h
Conditions	12.5 pM	0.00025 µM	0.005 µM	0.1 µM	1 µM	10 µM	100 µM	625 fM
HCI-002, days in culture: 62	2.76	2.54	3.08	2.78	2.68	2.44	0.0174	2.91
HCI-002, days in culture: 82	2.73	3.27	2.09	2.6	2.75	1.59	0.0194	2.63
HCI-002, days in culture: 91	3.43	3.15	2.38	2.79	2.2	2.58	0.0163	3.48
HCI-002, days in culture: 191	2.63	2.43	2.47	2.5	3.12	2.01	0.0155	2.73
HCI-002, days in culture: 209	2.22	2.16	2.08	2.02	2.19	1.5	0.0106	2.39
HCI-002, days in culture: 227	5.23	5.28	4.84	4.86	4.14	3.82	0.0281	5.85
HCI-010, days in culture: 52	2.07	2.16	2.18	2.37	2.53	2.2	0.0134	2.34
HCI-010, days in culture: 65	1.6	1.68	1.97	1.81	1.83	1.4	0.008	1.64
HCI-010, days in culture: 103	3.37	3.95	3.45	3.39	3.5	2.84	0.014	3.37
HCI-011.E2, days in culture: 74	2.22	2.98	1.74	2.19	2.18	3	0.399	2.84
HCI-015, days in culture: 172	2.53	1.9	2.05	1.54	1.91	1.53	0.0569	2.67
HCI-015, days in culture: 191	1.69	1.49	1.75	0.921	1.58	0.759	0.0182	1.67
HCI-015, days in culture: 218	2.15	1.83	1.97	1.85	1.5	1.64	0.0854	1.8
HCI-023, days in culture: 111	1.15	1.13	1.06	1.2	0.941	1.06	0.00921	1.65
HCI-023, days in culture: 128	1.78	1.62	1.59	2.03	1.5	1.59	0.0109	1.69

HCI-011.E2
Conditions	CTG-3D luminescence at 96 h
12.5 pM	1.7
0.00025 µM	1.59
0.005 µM	1.4
0.1 µM	1.87
1 µM	1.52
10 µM	1.91
100 µM	0.142
625 fM	1.5

CNC(=O)c1cccc(-c2ccc3c(N4CCOC[C@@H]4C)nc(N4CCOC[C@@H]4C)nc3n2)c1 [vistusertib]
CTG-3D luminescence at 96 h
Conditions	12.5 pM	0.00025 µM	0.005 µM	0.1 µM	1 µM	10 µM	100 µM	625 fM
HCI-002, days in culture: 62	2.66	2.61	3.41	2.32	1.07	0.702	0.277	2.99
HCI-002, days in culture: 82	3.06	2.8	2.5	2.33	1.07	0.582	0.259	2.63
HCI-002, days in culture: 91	3.62	3.61	3.38	2.8	1.19	0.884	0.482	3.86
HCI-002, days in culture: 191	2.7	2.8	3.06	2.32	1.41	0.774	0.426	2.78
HCI-002, days in culture: 209	2.32	2.49	2.32	2.03	0.917	0.345	0.219	2.62
HCI-002, days in culture: 227	5.65	5.55	5.27	3.89	1.39	1.12	0.394	5.47
HCI-010, days in culture: 52	2.1	2.32	2.14	1.57	0.904	0.76	0.17	2.19
HCI-010, days in culture: 65	1.67	1.73	1.69	1.14	0.708	0.543	0.0432	1.68
HCI-010, days in culture: 103	3.33	3.37	3.25	1.95	1.51	1.24	0.419	3.04
HCI-011.E2, days in culture: 74	3.1	2.54	2.03	1	0.26	0.247	0.0598	2.38
HCI-015, days in culture: 172	2.36	1.61	2.07	0.997	0.995	0.545	0.36	2.7
HCI-015, days in culture: 191	1.84	1.24	1.54	0.827	0.859	0.436	0.329	1.43
HCI-015, days in culture: 218	2.16	1.84	2.09	1.41	0.874	0.543	0.305	2.18
HCI-023, days in culture: 111	1.41	1.27	1.29	1.09	0.468	0.406	0.242	1.5
HCI-023, days in culture: 128	1.83	1.59	1.44	1.27	0.78	0.864	0.541	1.7

HCI-011.E2
Conditions	CTG-3D luminescence at 96 h
12.5 pM	1.477
0.00025 µM	1.841
0.005 µM	1.52
0.1 µM	1.23
1 µM	0.256
10 µM	0.212
100 µM	0.057
625 fM	1.59
